pIC50: −log10 of the molar value. Calls of active or inactive are those of the source. No cut-off for these calls is given here.

Usually pIC50 stands for the negative decadic logarithm of the IC50, by convention in mol/L. The term Papp denotes the rate of passage across a membrane or cell layer, normalised by area and donor concentration. A word on the bioavailability: it is dose-corrected exposure relative to a reference, in per cent. High values mean good availability, low ones poor availability. As usually defined, the half-life is the time in which the quantity being followed falls by half. A higher half-life goes with slow decline. In general, fraction unbound refers to the share of the substance not bound to proteins or other matrix. A lower fraction unbound goes with extensive binding.

Data set [1] deals with Sodium channel protein type 5 subunit alpha (Homo sapiens, UniProt Q14524). The data set is described as follows: Inhibition of 50% inactivated human Nav1.5alpha expressed in HEK293 cells incubated for 5 mins measured at 10 secs interval by PatchXpress automated electrophysiology method. It is filed as ADME, cell-based.
The target in data set [2] is T1, Sodium channel protein type 9 subunit alpha (Homo sapiens, UniProt Q15858). Put plainly: Inhibition of 50% inactivated human Nav1.7alpha expressed in HEK293 cells incubated for 5 mins measured at 10 secs interval by PatchXpress automated electrophysiology method. The format is cell-based.
T1 sequence (Q15858 whole entry): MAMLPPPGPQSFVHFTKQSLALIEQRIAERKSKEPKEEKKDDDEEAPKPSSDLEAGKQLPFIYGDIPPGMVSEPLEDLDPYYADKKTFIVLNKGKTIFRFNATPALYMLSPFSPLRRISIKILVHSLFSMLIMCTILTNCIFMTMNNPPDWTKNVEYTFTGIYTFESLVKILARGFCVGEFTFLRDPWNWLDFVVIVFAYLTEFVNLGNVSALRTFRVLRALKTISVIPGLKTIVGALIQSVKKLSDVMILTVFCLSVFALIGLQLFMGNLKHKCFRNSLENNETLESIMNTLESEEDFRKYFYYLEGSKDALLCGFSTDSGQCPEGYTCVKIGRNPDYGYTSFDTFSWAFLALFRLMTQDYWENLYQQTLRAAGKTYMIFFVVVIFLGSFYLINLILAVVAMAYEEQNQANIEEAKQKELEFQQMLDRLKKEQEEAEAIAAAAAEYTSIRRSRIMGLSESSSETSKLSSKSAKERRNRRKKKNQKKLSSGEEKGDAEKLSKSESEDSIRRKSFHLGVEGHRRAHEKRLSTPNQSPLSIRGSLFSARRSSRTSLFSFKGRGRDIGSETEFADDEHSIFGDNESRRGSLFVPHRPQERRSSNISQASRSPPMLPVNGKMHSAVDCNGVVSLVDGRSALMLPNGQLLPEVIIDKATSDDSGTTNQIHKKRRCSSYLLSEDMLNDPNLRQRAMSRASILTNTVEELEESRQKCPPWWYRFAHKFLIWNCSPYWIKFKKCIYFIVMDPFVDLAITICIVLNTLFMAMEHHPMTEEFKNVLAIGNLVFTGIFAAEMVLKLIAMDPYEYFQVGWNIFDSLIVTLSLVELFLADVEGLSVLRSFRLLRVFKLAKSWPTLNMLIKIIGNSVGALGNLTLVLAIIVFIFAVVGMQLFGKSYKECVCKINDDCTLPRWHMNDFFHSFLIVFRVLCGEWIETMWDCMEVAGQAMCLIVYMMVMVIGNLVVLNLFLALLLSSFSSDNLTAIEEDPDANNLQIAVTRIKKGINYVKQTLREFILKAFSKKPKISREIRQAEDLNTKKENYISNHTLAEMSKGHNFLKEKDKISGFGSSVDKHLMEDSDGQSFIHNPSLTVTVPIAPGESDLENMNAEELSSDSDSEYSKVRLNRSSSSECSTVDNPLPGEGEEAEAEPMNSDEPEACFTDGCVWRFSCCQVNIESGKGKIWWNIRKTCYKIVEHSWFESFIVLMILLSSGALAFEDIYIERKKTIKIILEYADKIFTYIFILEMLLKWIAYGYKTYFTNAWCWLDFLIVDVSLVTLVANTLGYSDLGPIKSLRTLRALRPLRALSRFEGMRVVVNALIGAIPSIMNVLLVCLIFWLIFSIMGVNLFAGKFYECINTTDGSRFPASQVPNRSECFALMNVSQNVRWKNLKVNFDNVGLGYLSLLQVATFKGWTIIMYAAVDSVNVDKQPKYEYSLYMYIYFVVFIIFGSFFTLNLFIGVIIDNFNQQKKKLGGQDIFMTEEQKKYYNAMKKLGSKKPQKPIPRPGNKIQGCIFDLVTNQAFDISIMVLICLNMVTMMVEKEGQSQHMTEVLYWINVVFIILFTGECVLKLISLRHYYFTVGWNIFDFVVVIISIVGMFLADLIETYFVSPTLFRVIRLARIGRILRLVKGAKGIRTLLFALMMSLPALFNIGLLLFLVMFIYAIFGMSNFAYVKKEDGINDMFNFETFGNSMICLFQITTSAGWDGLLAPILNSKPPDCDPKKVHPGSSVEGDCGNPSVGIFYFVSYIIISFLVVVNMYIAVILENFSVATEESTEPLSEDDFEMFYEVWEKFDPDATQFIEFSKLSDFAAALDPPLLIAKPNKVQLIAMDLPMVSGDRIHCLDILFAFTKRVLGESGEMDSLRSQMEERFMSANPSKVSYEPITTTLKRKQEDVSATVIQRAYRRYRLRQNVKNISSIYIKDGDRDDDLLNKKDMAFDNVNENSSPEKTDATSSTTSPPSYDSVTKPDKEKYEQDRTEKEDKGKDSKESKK
A short description of data set [3]: Selectivity ratio of IC50 for human Nav1.5alpha expressed in HEK293 cells to human Nav1.7alpha expressed in HEK293 cells.
Data set [4] concerns Mus musculus. Put plainly: Analgesic activity in C57BL/6 mouse assessed as reduction in formalin-induced nociceptive behavior at 100 mg/kg, sc pretreated for 90 mins followed by formalin challenge measured after 20 to 35 mins. The format is functional, organism-based.
Data set [5] in a line: Apparent permeability of the compound. Conditions: not told. The format is physicochemical.
The target of data set [6] is T2, Sodium channel protein type 9 subunit alpha (Mus musculus, UniProt Q62205). The data set is described as follows: Inhibition of 50% inactivated mouse Nav1.7alpha incubated for 5 mins measured at 10 secs interval by PatchXpress automated electrophysiology method.
T2 sequence (Q62205 whole entry): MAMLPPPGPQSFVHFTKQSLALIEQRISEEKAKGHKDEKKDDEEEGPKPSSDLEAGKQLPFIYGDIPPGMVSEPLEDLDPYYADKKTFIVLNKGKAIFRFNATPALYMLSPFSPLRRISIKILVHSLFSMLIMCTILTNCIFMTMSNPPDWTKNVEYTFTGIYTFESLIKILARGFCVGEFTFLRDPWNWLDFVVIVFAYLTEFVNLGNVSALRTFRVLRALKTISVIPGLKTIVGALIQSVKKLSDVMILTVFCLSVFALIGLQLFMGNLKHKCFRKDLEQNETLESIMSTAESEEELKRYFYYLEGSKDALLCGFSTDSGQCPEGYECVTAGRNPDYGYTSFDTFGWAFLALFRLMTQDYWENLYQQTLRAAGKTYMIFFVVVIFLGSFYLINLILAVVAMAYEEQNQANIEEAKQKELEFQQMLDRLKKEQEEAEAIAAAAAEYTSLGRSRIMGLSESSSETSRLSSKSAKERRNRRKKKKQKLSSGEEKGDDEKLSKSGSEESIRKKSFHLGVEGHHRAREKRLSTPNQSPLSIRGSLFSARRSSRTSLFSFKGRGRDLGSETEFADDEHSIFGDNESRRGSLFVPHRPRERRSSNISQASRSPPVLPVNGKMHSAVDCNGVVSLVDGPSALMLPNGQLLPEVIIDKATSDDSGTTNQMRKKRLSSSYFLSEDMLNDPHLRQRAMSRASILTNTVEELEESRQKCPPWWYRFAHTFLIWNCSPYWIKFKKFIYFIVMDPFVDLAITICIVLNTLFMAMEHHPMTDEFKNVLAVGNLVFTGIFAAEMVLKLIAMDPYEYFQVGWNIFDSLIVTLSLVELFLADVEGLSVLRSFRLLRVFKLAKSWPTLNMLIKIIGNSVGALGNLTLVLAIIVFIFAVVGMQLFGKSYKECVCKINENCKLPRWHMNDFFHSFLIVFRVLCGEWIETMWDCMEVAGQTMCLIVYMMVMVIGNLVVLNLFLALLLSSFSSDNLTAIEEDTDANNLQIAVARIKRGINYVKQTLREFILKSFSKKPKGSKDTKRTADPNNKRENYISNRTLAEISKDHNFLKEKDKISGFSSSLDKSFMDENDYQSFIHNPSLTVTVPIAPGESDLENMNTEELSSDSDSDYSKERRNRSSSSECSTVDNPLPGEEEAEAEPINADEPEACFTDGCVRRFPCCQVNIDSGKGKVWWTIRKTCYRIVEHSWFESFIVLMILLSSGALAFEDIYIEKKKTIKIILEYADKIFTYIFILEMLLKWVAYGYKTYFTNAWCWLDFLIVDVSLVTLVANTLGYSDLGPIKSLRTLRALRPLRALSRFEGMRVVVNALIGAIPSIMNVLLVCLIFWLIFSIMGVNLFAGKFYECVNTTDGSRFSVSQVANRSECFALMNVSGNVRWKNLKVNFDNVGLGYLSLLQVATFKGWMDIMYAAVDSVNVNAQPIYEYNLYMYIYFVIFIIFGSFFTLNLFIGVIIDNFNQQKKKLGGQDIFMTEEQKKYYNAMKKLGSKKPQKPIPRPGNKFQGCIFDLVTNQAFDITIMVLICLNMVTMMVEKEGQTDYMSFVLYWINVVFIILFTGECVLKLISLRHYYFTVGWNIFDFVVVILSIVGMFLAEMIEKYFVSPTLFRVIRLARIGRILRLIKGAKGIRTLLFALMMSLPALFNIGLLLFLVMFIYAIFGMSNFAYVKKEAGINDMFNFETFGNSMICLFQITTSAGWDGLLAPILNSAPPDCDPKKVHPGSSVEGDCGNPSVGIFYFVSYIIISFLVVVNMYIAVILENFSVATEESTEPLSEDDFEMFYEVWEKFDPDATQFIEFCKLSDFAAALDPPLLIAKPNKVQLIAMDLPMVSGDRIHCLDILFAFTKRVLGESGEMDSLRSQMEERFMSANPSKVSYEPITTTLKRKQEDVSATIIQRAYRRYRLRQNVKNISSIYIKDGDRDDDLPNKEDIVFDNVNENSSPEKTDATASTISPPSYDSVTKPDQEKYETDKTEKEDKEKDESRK
The test system of data set [7] is Mus musculus. The data set is described as follows: Analgesic activity in C57BL/6 mouse assessed as unbound concentration required for 50% reduction in formalin-induced nociceptive behavior at 100 mg/kg, sc pretreated for 90 mins followed by formalin challenge measured after 20 to 35 mins. The format is functional.
A short description of data set [8]: Ratio of fIC50 for analgesic activity in formalin-induced nociceptive C57BL/6 mouse model assessed as reduction in nociceptive behavior to IC50 for 50% inactivated mouse Nav1.7alpha.
Data set [9] in a line: Oral bioavailability in Wistar Hannover rat at 10 mg/kg. It is filed as ADME, organism-based. Conditions: in vivo.
The nature of data set [10]: Half life in Wistar Hannover rat at 2 mg/kg, iv. To be noted: in vivo. It is filed as ADME, organism-based.
For a further data set, the system named is Rattus norvegicus. Put plainly: Unbound plasma clearance in Wistar Hannover rat at 2 mg/kg, iv. It is filed as ADME, organism-based. To be noted: in vivo.
The nature of data set [11]: Fraction unbound in C57BL/6 mouse plasma at 100 mg/kg, sc. It is filed as ADME, organism-based.
Data set [12] concerns the target T3, Nuclear receptor subfamily 1 group I member 2 (Homo sapiens, UniProt O75469).
T3 sequence (O75469 whole entry): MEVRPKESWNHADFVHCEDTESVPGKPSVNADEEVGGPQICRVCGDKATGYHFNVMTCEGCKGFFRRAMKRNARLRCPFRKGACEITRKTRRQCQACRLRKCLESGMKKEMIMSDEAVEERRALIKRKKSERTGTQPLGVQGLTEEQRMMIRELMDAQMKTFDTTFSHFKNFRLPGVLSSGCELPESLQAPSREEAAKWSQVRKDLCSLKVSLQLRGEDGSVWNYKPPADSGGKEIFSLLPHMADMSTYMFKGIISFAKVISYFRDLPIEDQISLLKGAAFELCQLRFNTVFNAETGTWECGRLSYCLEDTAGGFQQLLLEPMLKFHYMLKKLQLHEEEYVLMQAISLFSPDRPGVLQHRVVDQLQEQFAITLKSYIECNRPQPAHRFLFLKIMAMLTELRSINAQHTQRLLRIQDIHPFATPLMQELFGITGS
The data set is described as follows: Activity at PXR (unknown origin). It is filed as ADME.

A short description of data set [13]: Ratio of drug level in brain to plasma in rat. The format is ADME.
Data set [14] has as its target T2, Sodium channel protein type 9 subunit alpha. The data set is described as follows: Inhibition of NaV1.7 channel in mouse DRG neurons assessed as reduction of TTX-sensitive current by whole cell patch clamp assay. A general note: In patch-clamp work, channel activity is measured electrically.
Data set [15] deals with Mus musculus. The data set is described as follows: Analgesic activity in C57BL/6 mouse assessed as reduction in formalin-induced nociceptive behavior administered subcutaneously pretreated for 90 mins followed by formalin challenge measured up to 30 mins. It is filed as functional.
The target in data set [16] is T1, Sodium channel protein type 9 subunit alpha. The data set is described as follows: Inhibition of NaV1.7 channel in human DRG neurons assessed as reduction of TTX-sensitive current by whole cell patch clamp assay.
Data set [17] in a line: Ratio of drug level in CSF to plasma in rat. It is filed as ADME.
Data set [18] addresses Sodium channel protein type 2 subunit alpha (Homo sapiens, UniProt Q99250). The data set is described as follows: Inhibition of Nav1.2 (unknown origin).
A short description of data set [19]: Fraction unbound in Wistar Hannover rat plasma. The format is ADME, cell-free.
Data set [20] addresses Sodium channel protein type 9 subunit alpha (Rattus norvegicus, UniProt O08562). The data set is described as follows: Inhibition of NaV1.7 channel in rat DRG neurons assessed as reduction of TTX-sensitive sodium current by whole cell patch clamp assay.
The test system of data set [21] is Mus musculus. The data set is described as follows: Analgesic activity in C57BL/6 mouse assessed as reduction in formalin-induced nociceptive behavior at 100 mg/kg, sc pretreated for 90 mins followed by formalin challenge measured up to 5 mins. The format is functional, organism-based.
Data set [22] concerns the target Voltage-dependent L-type calcium channel subunit alpha-1C (Homo sapiens, UniProt Q13936). The data set is described as follows: Activity at Cav1.2 (unknown origin).
The nature of data set [23]: Activity at CYP450 (unknown origin). It is filed as ADME. To be noted: human.
For data set [24], the target named is Voltage-gated inwardly rectifying potassium channel KCNH2 (Homo sapiens, UniProt Q12809). Put plainly: Activity at human ERG.
Chain of Voltage-gated inwardly rectifying potassium channel KCNH2 (Q12809 whole entry): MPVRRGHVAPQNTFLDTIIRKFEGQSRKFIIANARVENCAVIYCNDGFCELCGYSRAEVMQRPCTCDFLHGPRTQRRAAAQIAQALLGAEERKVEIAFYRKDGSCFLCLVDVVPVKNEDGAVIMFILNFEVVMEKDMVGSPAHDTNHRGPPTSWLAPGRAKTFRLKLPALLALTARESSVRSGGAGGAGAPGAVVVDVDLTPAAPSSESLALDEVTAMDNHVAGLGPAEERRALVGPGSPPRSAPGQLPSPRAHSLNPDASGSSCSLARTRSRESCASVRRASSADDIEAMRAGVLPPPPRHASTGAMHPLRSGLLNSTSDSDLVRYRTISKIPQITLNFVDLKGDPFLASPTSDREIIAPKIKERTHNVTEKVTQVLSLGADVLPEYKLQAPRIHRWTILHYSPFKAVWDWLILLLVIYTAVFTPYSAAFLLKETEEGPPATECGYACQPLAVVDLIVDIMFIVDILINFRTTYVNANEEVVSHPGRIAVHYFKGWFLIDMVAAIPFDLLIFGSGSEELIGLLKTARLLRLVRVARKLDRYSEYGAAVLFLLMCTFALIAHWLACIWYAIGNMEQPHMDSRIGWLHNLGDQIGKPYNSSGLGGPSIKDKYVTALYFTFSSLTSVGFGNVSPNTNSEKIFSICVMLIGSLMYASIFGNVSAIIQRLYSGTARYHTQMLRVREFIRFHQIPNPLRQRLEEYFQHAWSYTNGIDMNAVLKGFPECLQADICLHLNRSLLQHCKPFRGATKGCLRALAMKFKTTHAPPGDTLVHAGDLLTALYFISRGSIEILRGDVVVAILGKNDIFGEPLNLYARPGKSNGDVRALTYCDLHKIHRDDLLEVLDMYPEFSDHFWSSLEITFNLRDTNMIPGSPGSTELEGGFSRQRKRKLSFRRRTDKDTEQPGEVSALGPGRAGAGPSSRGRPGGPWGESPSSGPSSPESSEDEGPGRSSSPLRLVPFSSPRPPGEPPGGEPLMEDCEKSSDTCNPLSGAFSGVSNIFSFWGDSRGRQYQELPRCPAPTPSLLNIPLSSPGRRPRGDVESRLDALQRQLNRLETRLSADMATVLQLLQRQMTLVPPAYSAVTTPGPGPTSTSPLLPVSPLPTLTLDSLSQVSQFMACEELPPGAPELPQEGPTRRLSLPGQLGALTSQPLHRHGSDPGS

As to `O=c1sc2cc(S(=O)(=O)Nc3ncns3)ccc2n1Cc1ccccc1`, the figures for the pIC50 in data set [1] and in data set [2] were less than 4.52 and 6.01, respectively. Also, the “Ratio IC50” value in data set [3] is on record as greater than 31.
With `O=c1oc2cc(S(=O)(=O)Nc3ncns3)ccc2n1Cc1ccccc1`, the pIC50 in data set [1] was less than 4.52. In data set [3], the “Ratio IC50” value is greater than 62.
As for `O=c1oc2cc(S(=O)(=O)Nc3ncns3)ccc2n1Cc1cccc2c1CNCC2`, the pIC50 in data set [2] was 6.72. Further, the “Ratio IC50” value in data set [3] is greater than 158.
For the compound `C[C@H](c1ccccc1CN)n1c(=O)oc2cc(S(=O)(=O)Nc3cccc(F)n3)c(F)cc21`, the pIC50 was 5.13 in the data set with Mus musculus [4], 7.96 in [6] and 7.41 in [2]. For the same compound, the Papp in data set [5] came out at 4 ×10⁻⁶ cm/s. The fIC50 in the data set on Mus musculus [7] worked out at 1.1 µM. Further, the Ratio in data set [8] stood at 100. Moreover, the “Ratio IC50” value in data set [3] is 850. Also, the bioavailability in data set [9] stood at 50%. The same compound showed a half-life in data set [10] of 3 h. In the data set with Rattus norvegicus, this compound showed a CL free of 170 mL/min/kg. The same compound registered a fraction unbound in data set [11] of 0.145.
On to `O=S(=O)(Nc1ncns1)c1ccc2c(cnn2Cc2ccccc2)c1`, for which, in data set [3], the “Ratio IC50” value was 6.
Still for that read-out and setting: the result for `C[C@H](c1cccc2c1CNCC2)n1c(=O)oc2cc(S(=O)(=O)Nc3cc(Cl)ccn3)c(F)cc21` reads 88; that for `C[C@H](c1cccc2c1CNCC2)n1c(=O)oc2cc(S(=O)(=O)Nc3ccc(F)cn3)c(F)cc21`, 108.
For the compound `C[C@H](c1cccc2c1CNCC2)n1c(=O)oc2cc(S(=O)(=O)Nc3ncns3)ccc21`, the Activity entry in [12] was “Not Active”; in the data set on Mus musculus [15], “Dose-dependent effect”; in data set [22], “Not Active”; in [23], “Not Active”; in data set [24], “Not Active”. For the same compound, the pIC50 in the data set with Mus musculus [4] was 4.64; in data set [14] it was 7.09; in [16], 7.51; in data set [6] it was 7.52; in data set [18], 7.54; in data set [2] it was 7.68. For the same compound, the pIC50 in [20] is 5.63. For the same compound, the BPR in [13] is listed as 1%. In data set [5], the Papp is less than 2 ×10⁻⁶ cm/s. The fIC50 in the data set on Mus musculus [7] stood at 1.5 µM. Besides, the Ratio in [17] is listed as 0%; in data set [8] it was 50. In addition, the “Ratio IC50” value in data set [3] amounted to 1381. Besides, the fraction unbound was 0.133 in [19] and 0.065 in [11]. In data set [9], this compound came in with a bioavailability of 2%. This compound had a half-life in data set [10] of 0.8 h. Also, the result in the data set with Mus musculus [21] was Active. The compound further registered a CL free with Rattus norvegicus of 360 mL/min/kg.
Take `C[C@H](c1cccc2c1CNCC2)n1c(=O)oc2cc(S(=O)(=O)Nc3cccc(F)n3)c(F)cc21`: the Papp in [5] worked out at 2.5 ×10⁻⁶ cm/s. In data set [2], the pIC50 was 6.82. The “Ratio IC50” value in [3] was determined as 210. In data set [9], this compound gave a bioavailability of 30%. Further, the half-life in data set [10] is 1.9 h. Further, the CL free with Rattus norvegicus was 300 mL/min/kg.
For `C[C@H](c1ccccc1)n1c(=O)oc2cc(S(=O)(=O)Nc3ncns3)ccc21`, the “Ratio IC50” value in [3] worked out at 287.
For `O=C1COc2cc(S(=O)(=O)Nc3ncns3)ccc2N1Cc1ccccc1`, the pIC50 in [1] was less than 4.52; in [2], 6.09. Further, the “Ratio IC50” value in data set [3] is reported as greater than 37.
